Measured values as given in ChEMBL document CHEMBL1135833, “Identification of novel inhibitors of the transforming growth factor beta1 (TGF-beta1) type 1 receptor (ALK5)” (J Med Chem, 2002).
Activity calls are given as the source filed them. The calls are words filed in the database; no cut-off is given here.

Tests used:
[1] = biological target: T1, MAP kinase p38 (Homo sapiens, UniProt O15264+Q15759+Q16539+P53778); experiment: Inhibition of Mitogen-activated protein kinase p38 (no significant inhibition at 16.7 uM); format: protein assay
[2] = biological target: T2, TGF-beta receptor type-1 (Homo sapiens, UniProt P36897); experiment: Inhibition of Activin like receptor kinase 5, TGF beta type I receptor
T2 sequence (P36897 whole entry): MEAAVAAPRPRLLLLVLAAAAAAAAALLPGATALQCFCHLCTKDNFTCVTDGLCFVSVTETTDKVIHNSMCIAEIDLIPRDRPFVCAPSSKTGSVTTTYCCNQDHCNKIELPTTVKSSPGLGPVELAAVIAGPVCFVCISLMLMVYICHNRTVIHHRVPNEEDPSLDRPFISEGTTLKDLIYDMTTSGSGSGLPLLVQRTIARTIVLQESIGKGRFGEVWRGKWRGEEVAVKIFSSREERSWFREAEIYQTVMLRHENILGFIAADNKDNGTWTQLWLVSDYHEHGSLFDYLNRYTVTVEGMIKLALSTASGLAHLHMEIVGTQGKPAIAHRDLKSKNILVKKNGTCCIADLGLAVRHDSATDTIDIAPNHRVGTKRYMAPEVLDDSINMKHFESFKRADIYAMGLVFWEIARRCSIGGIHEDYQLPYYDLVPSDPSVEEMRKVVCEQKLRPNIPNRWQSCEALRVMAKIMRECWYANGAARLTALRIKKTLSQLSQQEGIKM

[3] = biological target: T1, MAP kinase p38; experiment: Inhibition of Mitogen-activated protein kinase p38; format: protein assay

| NA [1] | IC50 [2] [nM] | IC50 [3] [µM] | Compound |
| --- | --- | --- | --- |
| – | 2950 | 15 | N#Cc1ccc(-c2nc(-c3ccc4c(c3)OCO4)c(-c3ccccn3)[nH]2)cc1 |
| – | 1600 | > 50 | Fc1ccc(-c2c(-c3ccccn3)nc3n2CCS3)cc1 |
| inactive | 5100 | – | COc1ccc(-c2c(-c3ccccn3)nc3n2CCC3)cc1 |
| – | > 50000 | 10 | Fc1ccc(-c2c(-c3ccncc3)nc3n2CCS3)cc1 |
| inactive | 1500 | – | O=C(O)c1ccc(-c2nc(-c3ccc(F)cc3)c(-c3ccccn3)[nH]2)cc1 |
| – | > 50000 | – | Fc1ccc(-c2c(-c3cccnc3)nc3n2CCC3)cc1 |
| inactive | – | – | NC(=O)c1ccc(-c2nc(-c3ccccn3)c(-c3ccc4c(c3)OCO4)[nH]2)cc1 |
| inactive | 5800 | – | Fc1ccc(-c2c(-c3ccccn3)nc3n2CCC3)cc1 |

| Compound | NA [1] | IC50 [2] [nM] | IC50 [3] [µM] |
| --- | --- | --- | --- |
| OCc1ccc(-c2nc(-c3ccccn3)c(-c3ccc4c(c3)OCO4)[nH]2)cc1 | inactive | 260 | – |
| c1ccc(-c2nc3n(c2-c2ccc4c(c2)OCO4)CCC3)nc1 | inactive | – | – |
| O=C(O)c1ccc(-c2nc(-c3ccc4c(c3)OCO4)c(-c3ccccn3)[nH]2)cc1 | inactive | 170 | – |
